Source: patent US20100160304A1, “AROMATIC SULFONE COMPOUND AS ALDOSTERONE RECEPTOR MODULATOR” (Dainippon Sumitomo Pharma Co., Ltd, priority 2005, published 2010)

The compounds below were run against T1, aldosterone receptor MR (Rattus norvegicus, UniProt P22199) (assay: Aldosterone receptor binding assay ([3H]aldosterone, soluble fraction of rat kidney)). Settings: [3H]aldosterone 2 nM, 2 μM RU-486, 4° C. about 18 hours.
T1 construct: the resultant supernatant was being a soluble fraction of the kidney; from tissue; host or cells: kidney of adrenalectomized rat, 105,000 G supernatant (soluble fraction)
T1 sequence (P22199 1-981): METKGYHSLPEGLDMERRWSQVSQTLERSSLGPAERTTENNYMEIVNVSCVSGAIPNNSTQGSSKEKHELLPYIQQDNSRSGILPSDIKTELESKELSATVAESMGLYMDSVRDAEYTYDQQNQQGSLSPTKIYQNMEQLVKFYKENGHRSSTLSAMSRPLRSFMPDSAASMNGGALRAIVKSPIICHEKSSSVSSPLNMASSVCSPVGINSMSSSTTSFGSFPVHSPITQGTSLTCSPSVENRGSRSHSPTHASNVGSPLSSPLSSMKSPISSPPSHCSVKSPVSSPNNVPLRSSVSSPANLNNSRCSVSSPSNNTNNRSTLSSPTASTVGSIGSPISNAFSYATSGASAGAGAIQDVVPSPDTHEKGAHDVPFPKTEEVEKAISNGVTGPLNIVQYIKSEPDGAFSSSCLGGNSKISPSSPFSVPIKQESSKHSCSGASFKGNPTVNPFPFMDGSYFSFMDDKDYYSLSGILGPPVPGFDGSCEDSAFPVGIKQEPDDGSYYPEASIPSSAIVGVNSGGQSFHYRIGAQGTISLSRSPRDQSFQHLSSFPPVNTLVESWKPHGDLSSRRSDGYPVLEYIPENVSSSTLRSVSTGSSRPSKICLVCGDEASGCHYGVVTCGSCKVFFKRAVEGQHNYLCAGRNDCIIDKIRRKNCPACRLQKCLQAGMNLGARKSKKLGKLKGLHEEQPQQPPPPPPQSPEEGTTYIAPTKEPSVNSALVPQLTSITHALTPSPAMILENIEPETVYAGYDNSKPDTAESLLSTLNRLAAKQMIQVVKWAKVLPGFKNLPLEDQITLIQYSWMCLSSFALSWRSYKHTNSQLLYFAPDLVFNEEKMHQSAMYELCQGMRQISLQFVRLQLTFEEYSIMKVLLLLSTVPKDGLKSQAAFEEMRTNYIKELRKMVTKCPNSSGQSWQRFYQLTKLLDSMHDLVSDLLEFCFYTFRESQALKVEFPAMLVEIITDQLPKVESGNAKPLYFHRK
Procedure: Flank incision (both sides) was subjected to a rat to adrenalectomize. After suturing the rat's incised parts, the rat was again returned to a breeding cage and bred for a duration of 3 to 5 days to collect a kidney from the rat; the collected kidney was homogenized with 0.1 M Tris-HCl, 0.25M sucrose, 0.1M Na2MoO4, 2 mM DTT buffer solution (pH 7.4), the resultant solution was subjected to centrifugal separation at 105,000 G for 30 minutes, and the resultant supernatant was being a soluble fraction of the kidney.
Thereafter, the reactant solution was added with 50 μL of 5% dextran coated charcoal and mixed, and then centrifugated at 3,000 G for 5 minutes. Subsequently, 100 μL of the supernatant was collected and mixed with 3.5 mL of liquid scintillator ACS-II (Amersham) to measure a radioactivity with a liquid scintillation counter (manufactured by Packard, Tri Carb 2700TR). A non-specific binding was determined by adding 2 μM of aldosterone to the reactant solution.
Binding inhibiting rate (%)=10−[(B−N)/(B0−N)]×100
B: Binding amount of the marker ligand in the co-presence of the tested substance and marker ligand,
B0: Binding amount of the marker ligand in the absence of the tested substance, and
N: Binding amount of the marker ligand in the presence of excess aldosterone (2 μM).

Row | IC50 | SMILES
1 | 3.9 µM | CC1CC(C)(C)Nc2ccc(NS(=O)(=O)c3ccc4ccccc4c3)cc21 (stereo not shown) [Example 99, N-(2,2,4-Trimethyl-1,2,3,4-tetrahydroquinolin-6-yl)naphthalene-2-sulfonamide]
2 | 0.9 µM | CC1=CC(C)(C)Nc2ccc(NS(=O)(=O)c3ccccc3C)cc21 [Example 78, 2-Methyl-N-(2,2,4-trimethyl-1,2-dihydroquinolin-6-yl)benzenesulfonamide]
3 | 0.19 µM | CC(=O)N(c1ccc2c(c1)C(C)CC(C)(C)N2)S(=O)(=O)c1ccc(C)cc1 (stereo not shown) [Example 101, N-[(4-Methylphenyl)sulfonyl]-N-(2,2,4-trimethyl-1,2,3,4-tetrahydroquinolin-6-yl)acetamide]
4 | 0.39 µM | CC1=CC(C)(C)Nc2ccc(NS(=O)(=O)c3cc4ccccc4s3)cc21 [Example 75, N-(2,2,4-Trimethyl-1,2-dihydroquinolin-6-yl)-1-benzothiophene-2-sulfonamide]
5 | 0.094 µM | CC1CC(C)(C)Nc2ccc(NS(=O)(=O)c3cccs3)cc21 (stereo not shown) [Example 98, N-(2,2,4-Trimethyl-1,2,3,4-tetrahydroquinolin-6-yl)thiophene-2-sulfonamide]
6 | 0.5 µM | CC1=CC(C)(C)Nc2ccc(N(C)S(=O)(=O)c3ccc(C)cc3)cc21 [Example 81, N,4-Dimethyl-N-(2,2,4-trimethyl-1,2-dihydroquinolin-6-yl)benzenesulfonamide]
7 | 1.2 µM | CC1=CC(C)(C)Nc2ccc(NS(=O)(=O)c3ccc(F)cc3)cc21 [Example 69, 4-Fluoro-N-(2,2,4-trimethyl-1,2-dihydroquinolin-6-yl)benzenesulfonamide]
8 | 16 µM | Cc1ccc(S(=O)(=O)Oc2ccc(NS(C)(=O)=O)cc2C)cc1 [Example 109, 2-Methyl-4-[(methylsulfonyl)amino]phenyl 4-methylbenzenesulfonate]
9 | 2.1 µM | Cc1ccc(S(=O)(=O)N(C)c2ccc3c(c2)C(C)CC(C)(C)N3)cc1 (stereo not shown) [Example 100, N,4-Dimethyl-N-(2,2,4-trimethyl-1,2,3,4-tetrahydroquinolin-6-yl)benzenesulfonamide]
10 | 8 µM | CCCCS(=O)(=O)Nc1ccc(OS(=O)(=O)c2ccc(C)cc2)cc1 [Example 106, 4-[(Butylsulfonyl)amino]phenyl 4-methylbenzenesulfonate]
11 | 0.15 µM | CC1=CC(C)(C)Nc2ccc(N(C)S(=O)(=O)c3cccs3)cc21 [Example 85, N-Methyl-N-(2,2,4-trimethyl-1,2-dihydroquinolin-6-yl)thiophene-2-sulfonamide]
12 | 1.3 µM | CC1=CC(C)(C)Nc2cc(C)c(NS(=O)(=O)c3ccc(C)cc3)cc21 [Example 80, 4-Methyl-N-(2,2,4,7-tetramethyl-1,2-dihydroquinolin-6-yl)benzenesulfonamide]
13 | 5.4 µM | Cc1ccc(S(=O)(=O)Cc2ccc(NS(C)(=O)=O)cc2)cc1 [Example 112, N-(4-{[(4-Methylphenyl)sulfonyl]methyl}phenyl)methanesulfonamide]
14 | 9.4 µM | Cc1ccc(S(=O)(=O)Oc2ccc(NS(C)(=O)=O)cc2F)cc1 [Example 110, 2-Fluoro-4-[(methylsulfonyl)amino]phenyl 4-methylbenzenesulfonate]
15 | 1.8 µM | Cc1ccc(S(=O)(=O)Cc2ccc3c(c2)CCC(C(F)(F)F)N3)cc1 (stereo not shown) [Example 104, 6-{[(4-Methylphenyl)sulfonyl]methyl}-2-(trifluoromethyl)-1,2,3,4-tetrahydroquinoline]

Continued, compound first:

Row | SMILES | IC50
16 | CC1=CC(C)(C)Nc2ccc(NS(=O)(=O)c3cccs3)cc21 [Example 62, N-(2,2,4-Trimethyl-1,2-dihydroquinolin-6-yl)thiophene-2-sulfonamide] | 0.13 µM
17 | CC1(C)OC(=S)Nc2ccc(OS(=O)(=O)c3cccs3)cc21 [Example 12, 4,4-Dimethyl-2-thioxo-1,4-dihydro-2H-3,1-benzoxazin-6-yl thiophene-2-sulfonate] | 0.083 µM
18 | CC1=CC(C)(C)Nc2cc(F)c(OS(=O)(=O)c3ccc(C)cc3)cc21 [Example 54, 7-Fluoro-2,2,4-trimethyl-1,2-dihydroquinolin-6-yl 4-methylbenzenesulfonate] | 0.2 µM
19 | CC1=CC(C)(C)Nc2ccc(NS(=O)(=O)c3ccccc3)cc21 [Example 63, N-(2,2,4-Trimethyl-1,2-dihydroquinolin-6-yl)benzenesulfonamide] | 0.36 µM
20 | CC1=CC(C)(C)Nc2ccc(NS(=O)(=O)c3ccc4ccccc4c3)cc21 [Example 61, N-(2,2,4-Trimethyl-1,2-dihydroquinolin-6-yl)naphthalene-2-sulfonamide] | 0.52 µM
21 | CC1(C)OC(=S)Nc2ncc(CS(=O)(=O)c3cccs3)cc21 [Example 37, 4,4-Dimethyl-6-[(2-thienylsulfonyl)methyl]-1,4-dihydro-2H-pyrido[2,3-d][1,3]oxazin-2-thione] | 0.96 µM
22 | CC1(C)OC(=S)Nc2ccc(NS(=O)(=O)c3ccsc3)cc21 [Example 28, N-(4,4-Dimethyl-2-thioxo-1,4-dihydro-2H-3,1-benzoxazin-6-yl)thiophene-3-sulfonamide] | 0.013 µM
23 | C=CC1OC(=S)Nc2ccc(NS(=O)(=O)c3cccs3)cc21 (stereo not shown) [Example 46, N-(2-Thioxo-4-vinyl-1,4-dihydro-2H-3,1-benzoxazin-6-yl)thiophene-2-sulfonamide] | 2.9 µM
24 | CC1(C)OC(=S)Nc2ccc(CS(=O)(=O)c3ccccc3)cc21 [Example 18, 4,4-Dimethyl-6-[(phenylsulfonyl)methyl]-1,4-dihydro-2H-3,1-benzoxazin-2-thione] | 0.039 µM
25 | CC1=CC(C)(C)Nc2ccc(NS(=O)(=O)c3ccc(C)cc3)cc21 [Example 60, 4-Methyl-N-(2,2,4-trimethyl-1,2-dihydroquinolin-6-yl)benzenesulfonamide] | 0.3 µM
26 | O=S(=O)(Nc1ccc2c(c1)C(c1ccccc1)OC(=S)N2)c1cccs1 (stereo not shown) [Example 44, N-(4-Phenyl-2-thioxo-1,4-dihydro-2H-3,1-benzoxazin-6-yl)thiophene-2-sulfonamide] | 0.86 µM
27 | C=CC1(C)OC(=S)Nc2ccc(NS(=O)(=O)c3cccs3)cc21 (stereo not shown) [Example 50, N-(4-Methyl-2-thioxo-4-vinyl-1,4-dihydro-2H-3,1-benzoxazin-6-yl)thiophene-2-sulfonamide] | 0.011 µM
28 | CC(=O)N(c1ccc2c(c1)C(C)(C)OC(=S)N2)S(=O)(=O)c1cccs1 [Example 26, N-(4,4-Dimethyl-2-thioxo-1,4-dihydro-2H-3,1-benzoxazin-6-yl)-N-(2-thienylsulfonyl)acetamide] | 0.015 µM
29 | C=CC1(C)OC(=O)Nc2ccc(NS(=O)(=O)c3cccs3)cc21 (stereo not shown) [Example 49, N-(4-Methyl-2-oxo-4-vinyl-1,4-dihydro-2H-3,1-benzoxazin-6-yl)thiophene-2-sulfonamide] | 2.7 µM
30 | CC1(C)OC(=S)Nc2ccc(NS(=O)(=O)c3ccccc3F)cc21 [Example 29, N-(4,4-Dimethyl-2-thioxo-1,4-dihydro-2H-3,1-benzoxazin-6-yl)-2-fluorobenzenesulfonamide] | 1.6 µM
31 | Cc1ccc(S(=O)(=O)Oc2ccc3c(c2)C(C)(C)OC(=S)N3)cc1 [Example 2, 4,4-Dimethyl-2-thioxo-1,4-dihydro-2H-3,1-benzoxazin-6-yl 4-methylbenzenesulfonate] | 0.32 µM
32 | CC1(C)OC(=S)Nc2ccc(NS(=O)(=O)c3ccc(C(F)(F)F)cc3)cc21 [Example 30, N-(4,4-Dimethyl-2-thioxo-1,4-dihydro-2H-3,1-benzoxazin-6-yl)-4-(trifluoromethyl)benzenesulfonamide] | 0.16 µM
33 | CC1(C)OC(=S)Nc2ncc(CS(=O)(=O)c3cccnc3)cc21 [Example 38, 4,4-Dimethyl-6-[(pyridine-3-ylsulfonyl)methyl]-1,4-dihydro-2H-pyrido[2,3-d][1,3]oxazin-2-thione] | 6.6 µM
34 | CC1=CC(C)(C)Nc2ccc(NS(=O)(=O)c3cccc(F)c3)cc21 [Example 68, 3-Fluoro-N-(2,2,4-trimethyl-1,2-dihydroquinolin-6-yl)benzenesulfonamide] | 1.5 µM
